Results published in patent US12534449B2, “Stable crystalline hydrate of clazosentan disodium salt” (Idorsia Pharmaceuticals Ltd, priority 2020, dated 2026).
Where a name gives a salt, the structure may show the parent alone.

Tests used:
[1] = Solubility of COMPOUND in water; details: room temperature
[2] = Gravimetric vapor sorption (GVS) analysis; format: physicochemical; details: for behaviour of water content with relative humidity (GVS): humidity scan; for water content (GVS) in equivalents of water: equilibrium / final water content
Experimental: Gravimetric vapor sorption analysis of form C was performed on a Hiden Isochema IGAsorp™ Model HAS-036-080. Approximately 20 mg of the sample was placed without any pre-treatment into a stainless-steel mesh sample holder. The measurement was run at 25° C. with changing the humidity in the order 40%-95%-0%-40% RH by steps of 5% RH and with maximum equilibration time of 24 h at each step. Gravimetric vapor sorption experiments for all the other hydrates disclosed herein were performed on a SPS 100n instrument from ProUmid GmbH & Co. KG. Typically, 10-20 mg of material were placed into tared aluminum pans without any pre-treatment. The measurements were again run at 25° C. and with changing the humidity in the order 20%-90%-0%-25% RH by steps of 5% and with maximum equilibration time of 24 h at each step. When plotting the data (see corresponding Figures), weight changes of one equivalent of water are indicated by dotted horizontal lines.

| SMILES | behaviour of water content with relative humidity (GVS) ([2]; 25° C.) | water content (GVS) in equivalents of water [2] | hydrate stoichiometry attributed from GVS water content / uptake ([2]; 25° C.) | further results |
| --- | --- | --- | --- | --- |
| COc1ccccc1Oc1c(NS(=O)(=O)c2ccc(C)cn2)nc(-c2ccnc(-c3nnn[nH]3)c2)nc1OCCO [COMPOUND, 5-methyl-pyridine-2-sulfonic acid N-{6-(2-hydroxy-ethoxy)-5-(2-methoxy-phenoxy)-2-[2-(1H-tetrazol-5-yl)-pyridin-4-yl]-pyrimidin-4-yl}-amide disodium salt] | – | – | – | solubility in water [1]: about 25 g in 100 mL |
| COc1ccccc1Oc1c([N-]S(=O)(=O)c2ccc(C)cn2)nc(-c2ccnc(-c3nnn[n-]3)c2)nc1OCCO.[Na+].[Na+] [form C] | stable with a slight increase between 5% and 95% RH | – | – | behaviour of water content below 5% RH (GVS) ([2]; 25° C., below 5% RH): decreases dramatically; water content at the starting point (GVS) ([2]; 40% RH, 25° C., dry basis): 14% |
| COc1ccccc1Oc1c([N-]S(=O)(=O)c2ccc(C)cn2)nc(-c2ccnc(-c3nnn[n-]3)c2)nc1OCCO.[Na+].[Na+] [form E] | – | approx. 1 equivalents | – | water content at equilibrium (GVS scan) ([2]; 25° C.): 3% |
| COc1ccccc1Oc1c([N-]S(=O)(=O)c2ccc(C)cn2)nc(-c2ccnc(-c3nnn[n-]3)c2)nc1OCCO.[Na+].[Na+] [form L] | – | 3 equivalents | – | final water content (GVS experiment) ([2]; dried at 0% RH, then re-humidified at 40% RH): about 8% |
| COc1ccccc1Oc1c([N-]S(=O)(=O)c2ccc(C)cn2)nc(-c2ccnc(-c3nnn[n-]3)c2)nc1OCCO.[Na+].[Na+] [form N] | noticeable adsorption of excess water with increasing relative humidity | – | tetrahydrate | – |
| COc1ccccc1Oc1c([N-]S(=O)(=O)c2ccc(C)cn2)nc(-c2ccnc(-c3nnn[n-]3)c2)nc1OCCO.[Na+].[Na+] [form P] | – | – | trihydrate | – |
